In PMC10966990, “Rational design of a cyclohexanone dehydrogenase for enhanced α,β-desaturation and substrate specificity” (Chemical Science, 2024):

Tests used:
[1] = molecular target: T1, cyclohexanone dehydrogenase (CDH) (Alicycliphilus denitrificans, UniProt F4G7N3); assay: X-ray crystal structure, […] A; format: binding; conditions: covalent; C8M of FAD 1.84 A from S-gamma of Cys305
T1 construct: gene Alide2_4318; full gene in pET28a, N-terminal His6 tag, E. coli BL21(DE3); dimer

[2] = molecular target: T1, cyclohexanone dehydrogenase (CDH); assay: DCPIP colour change assay; format: biochemical; conditions: 0.25 uM enzyme, 2 mM substrate, 75 uM DCPIP, 20 mM Tris-HCl pH 7.8
Target sequence in this assay (F4G7N3 entry or part of it W94A, form open): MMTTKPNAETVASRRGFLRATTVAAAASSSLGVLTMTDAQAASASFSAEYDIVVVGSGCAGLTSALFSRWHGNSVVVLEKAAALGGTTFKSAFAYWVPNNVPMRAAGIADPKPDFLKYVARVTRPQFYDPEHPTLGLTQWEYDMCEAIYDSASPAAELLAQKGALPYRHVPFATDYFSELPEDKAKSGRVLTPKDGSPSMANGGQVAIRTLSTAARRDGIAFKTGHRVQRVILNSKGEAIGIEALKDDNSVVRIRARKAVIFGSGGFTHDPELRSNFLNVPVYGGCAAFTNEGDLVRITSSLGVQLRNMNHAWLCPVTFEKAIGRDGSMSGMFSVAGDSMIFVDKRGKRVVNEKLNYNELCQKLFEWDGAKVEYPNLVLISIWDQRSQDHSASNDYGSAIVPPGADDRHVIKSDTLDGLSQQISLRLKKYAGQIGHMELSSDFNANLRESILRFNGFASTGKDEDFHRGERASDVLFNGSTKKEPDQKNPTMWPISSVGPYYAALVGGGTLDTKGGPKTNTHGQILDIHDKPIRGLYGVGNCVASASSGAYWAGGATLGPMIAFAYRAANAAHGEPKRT

[3] = molecular target: T2, cyclohexanone dehydrogenase (CDH) (Alicycliphilus denitrificans, UniProt F4G7N3, Y176F, form not given); assay: X-ray crystal structure, […] A; format: binding; conditions: crystals grown with 10 mM cyclohexanone; product modelled in active site next to FAD, further molecules elsewhere
T2 construct: gene Alide2_4318; full gene in pET28a, N-terminal His6 tag, E. coli BL21(DE3); dimer

purified protein = substrate: CC1(C)CCC(=O)CC1; assay: purified protein; conditions: pH 7.8
[4] = substrate: CC1CCCC(=O)C1; assay: DCPIP reduction assay, Michaelis-Menten; format: biochemical, Alicycliphilus denitrificans; conditions: 76 nM enzyme, 60 uM DCPIP, 20 mM Tris-HCl pH 7.8, low aqueous solubility of substrate, caution stated
[5] = substrate: O=C1CCCCC1; assay: DCPIP reduction assay, Michaelis-Menten; format: biochemical, Alicycliphilus denitrificans; conditions: 76 nM enzyme, 60 uM DCPIP, 20 mM Tris-HCl pH 7.8

T2 sequence (F4G7N3 entry or part of it Y176F, form open): as the sequence (F4G7N3 entry or part of it W94A, form open) above, with A94W, Y176F counted along it

Cc1cc2nc3c(=O)[nH]c(=O)nc-3n(C[C@H](O)[C@H](O)[C@H](O)COP(=O)(O)OP(=O)(O)OC[C@H]3O[C@@H](n4cnc5c(N)ncnc54)[C@H](O)[C@@H]3O)c2cc1C [flavin adenine dinucleotide]
X-ray crystal structure, 1.86 A [1]: The FAD cofactor was found to occupy a deep positively charged channel

O=C1CCc2ccccc2O1 [compound 5, dihydrocoumarin]
DCPIP colour change assay [2]: the W113A variant, but not WT CDH, with dihydrocoumarin

O=C1C=CCCC1 [compound 10, 2-cyclohexen-1-one]
X-ray crystal structure, 1.33 A [3]: 2-cyclohexen-1-one was subsequently modelled to produce the Y195F complex structure

CC1CCCC(=O)C1 (stereo not shown) [compound 2, 3-methylcyclohexanone]
DCPIP colour change assay [2]: The W113A variant showed highest activity on 3-methylcyclohexanone

B1: cyclohexanone dehydrogenase (CDH) (Alicycliphilus denitrificans K601) (protein)
chain: MMTTKPNAETVASRRGFLRATTVAAAASSSLGVLTMTDAQAASASFSAEYDIVVVGSGCAGLTSALFSRWHGNSVVVLEKAAALGGTTFKSAFWYWVPNNVPMRAAGIADPKPDFLKYVARVTRPQFYDPEHPTLGLTQWEYDMCEAIYDSASPAAELLAQKGALPYRHVPFATDYFSELPEDKAKSGRVLTPKDGSPSMANGGQVAIRTLSTAARRDGIAFKTGHRVQRVILNSKGEAIGIEALKDDNSVVRIRARKAVIFGSGGFTHDPELRSNFLNVPVYGGCAAFTNEGDLVRITSSLGVQLRNMNHAWLCPVTFEKAIGRDGSMSGMFSVAGDSMIFVDKRGKRVVNEKLNYNELCQKLFEWDGAKVEYPNLVLISIWDQRSQDHSASNDYGSAIVPPGADDRHVIKSDTLDGLSQQISLRLKKYAGQIGHMELSSDFNANLRESILRFNGFASTGKDEDFHRGERASDVLFNGSTKKEPDQKNPTMWPISSVGPYYAALVGGGTLDTKGGPKTNTHGQILDIHDKPIRGLYGVGNCVASASSGAYWAGGATLGPMIAFAYRAANAAHGEPKRT
notes: full gene in pET28a, N-terminal His6 tag, E. coli BL21(DE3); dimer
Km (purified protein): 25.62 ± 7.68 mM | Km [4]: 9.31 ± 1.99 mM | Km [5]: 0.37 ± 0.04 mM
